# From US9284283B2, “Macrocyclic compounds for modulating IL-17” (ENSEMBLE THERAPEUTICS CORPORATION, priority 2012, dated 2016)
# Target: T1, recombinant human IL17a (binding to its receptor IL17R) (Homo sapiens, UniProt Q16552)
# T1 construct: purchased R&D Systems 317-ILB (IL17a); 177-IR (IL17R/Fc)
# T1 sequence (Q16552 20-155 limits assumed): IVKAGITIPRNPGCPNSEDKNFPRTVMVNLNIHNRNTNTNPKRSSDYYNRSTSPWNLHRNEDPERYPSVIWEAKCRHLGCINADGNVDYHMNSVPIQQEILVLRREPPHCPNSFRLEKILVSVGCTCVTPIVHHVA
# Assay: IL-17 competition ELISA I (IL17a coated, IL17R/Fc binding)
# Protocol: ELISA I: The ability of the compounds to block binding of IL17a to its receptor, IL17R, was analyzed in a competition ELISA format. High binding 96-well plates (Costar #9018) were coated with 20 nM of recombinant human IL17a (R&D Systems #317-ILB) in PBS (0.64 μg/mL), 100 μL/well, for 30 min at 37′C followed by 5 min at 4′C. Plates were then washed in PBST (PBS/0.05% Tween-20) on a plate washer, (Biotech EL-450) blocked with protein-free blocking buffer (Thermo Scientific #37573) in 250 μL/well for 30 min on shaker at room temperature, and then washed again. Compound dilutions prepared in PBST were added into the wells in duplicates followed by the addition of IL17R/Fc (R&D Systems #177-IR) at a final concentration of 12 nM. Plates were then incubated for 30 min at room temperature on the shaker. Wells with no compound served as a positive “no competitor” control, while wells with no IL17R/Fc and no compound served as a blank negative control. After an additional PBST wash, 50 ng/mL HRP-conjugated goat anti-human Fc IgG (KPL #04-10-20) was added to the plate for 30 min at room temperature, followed by PBST wash and addition of SureBlue™ TMB (KPL #52-00-03). After the sufficient color development, the reaction was fixed by the addition of 100 μL/well 0.5 N HCl and absorbance was measured at 450 nm on Biotek plate reader.
# Data were processed using BioAssay Enterprise v10.1.4 (CambridgeSoft) software. Linear OD λ450 were plotted against log concentration (x) and fitted to a 4-parameter logistic equation. IC50 was calculated using positive ‘no competitor’ control data as an upper limit and blank control as a lower limit in each assay.
row,IC50,Structure (SMILES)
1,1 to 10 µM,C[C@@H]1C(=O)NCCCCCNC(=O)CC2(CCCC2)CC(=O)N[C@H](Cc2ccc(NC(=O)[C@H](Cc3ccccc3Cl)NC(=O)Cc3ccccc3)cc2)C(=O)N1C [Compound 289]
2,0.1 to 1 µM,C[C@@H]1NC(=O)[C@@H](Cc2ccc(NC(=O)[C@H](Cc3ccccc3Cl)NC(=O)Cc3ccccc3)cc2)NC(=O)CC2(CCCC2)CC(=O)NCCCCCNC1=O [Compound 290]
3,1 to 10 µM,C[C@H]1C(=O)NCCCCCNC(=O)CC2(CCCC2)CC(=O)N[C@H](Cc2ccc(NC(=O)[C@H](Cc3ccccc3Cl)NC(=O)Cc3ccccc3)cc2)C(=O)N1C [Compound 291]
4,< 0.1 µM,O=C1CNC(=O)[C@@H](Cc2ccc(NC(=O)[C@H](CC3CCCCC3)NC(=O)Cc3ccc(O)cc3)cc2)NC(=O)CC2(CCCC2)CC(=O)NCCCCCN1 [Compound 294]
5,< 0.1 µM,O=C1CNC(=O)[C@@H](Cc2ccc(NC(=O)[C@H](Cc3ccccc3Cl)NC(=O)Cc3ccc(F)cc3F)cc2)NC(=O)CC2(CCCC2)CC(=O)NCCCCCN1 [Compound 296]
6,< 0.1 µM,O=C1CNC(=O)[C@@H](Cc2ccc(NC(=O)[C@H](Cc3ccccc3Cl)NC(=O)c3ccc(F)c(F)c3)cc2)NC(=O)CC2(CCCC2)CC(=O)NCCCCCN1 [Compound 297]
7,< 0.1 µM,O=C1CNC(=O)[C@@H](Cc2ccc(NC(=O)[C@H](Cc3ccccc3Cl)NC(=O)Cc3ccc(F)c(F)c3)cc2)NC(=O)CC2(CCCC2)CC(=O)NCCCCCN1 [Compound 298]
8,1 to 10 µM,O=C1CNC(=O)[C@@H](Cc2ccc(NC(=O)[C@H](Cc3ccccc3Cl)NC(=O)c3ccc(C(=O)O)cc3)cc2)NC(=O)CC2(CCCC2)CC(=O)NCCCCCN1 [Compound 299]
9,0.1 to 1 µM,O=C1CNC(=O)[C@@H](Cc2ccc(NC(=O)[C@H](Cc3ccccc3Cl)NC(=O)CN3CCCCC3)cc2)NC(=O)CC2(CCCC2)CC(=O)NCCCCCN1 [Compound 300]
10,1 to 10 µM,O=C1CNC(=O)[C@@H](Cc2ccc(NC(=O)[C@H](Cc3ccccc3Cl)NC(=O)CN3CCCC3)cc2)NC(=O)CC2(CCCC2)CC(=O)NCCCCCN1 [Compound 301]
11,0.1 to 1 µM,CN(C)CC(=O)N[C@@H](Cc1ccccc1Cl)C(=O)Nc1ccc(C[C@H]2NC(=O)CC3(CCCC3)CC(=O)NCCCCCNC(=O)CNC2=O)cc1 [Compound 303]
12,0.1 to 1 µM,O=C1CNC(=O)[C@@H](Cc2ccc(NC(=O)[C@H](Cc3ccccc3Cl)NC(=O)CN3CCOCC3)cc2)NC(=O)CC2(CCCC2)CC(=O)NCCCCCN1 [Compound 304]
13,0.1 to 1 µM,CN1CCCCCNC(=O)CNC(=O)[C@@H](Cc2ccc(NC(=O)[C@H](Cc3ccccc3Cl)NC(=O)c3ccc(F)cc3)cc2)NC(=O)CC2(CCCC2)CC1=O [Compound 306]
14,< 0.1 µM,CN1CCCCCNC(=O)CC2(CCCC2)CC(=O)N[C@H](Cc2ccc(NC(=O)[C@H](Cc3ccccc3Cl)NC(=O)Cc3ccc(O)cc3)cc2)C(=O)NCC1=O [Compound 307]
15,0.1 to 1 µM,CN1CCCCCNC(=O)CC2(CCCC2)CC(=O)N[C@H](Cc2ccc(NC(=O)[C@H](Cc3ccccc3Cl)NC(=O)c3ccc(F)cc3)cc2)C(=O)NCC1=O [Compound 308]
16,0.1 to 1 µM,O=C1CC2(CCCC2)CC(=O)N[C@H](Cc2ccc(NC(=O)[C@H](Cc3ccccc3Cl)NC(=O)c3ccc(F)cc3)cc2)C(=O)N[C@@H](Cc2ccccc2)C(=O)NCCCCCN1 [Compound 309]
17,1 to 10 µM,O=C1CNC(=O)[C@@H](Cc2ccc(NC(=O)[C@H](NC(=O)Cc3ccccc3)C3CCCCC3)cc2)NC(=O)CC2(CCCC2)CC(=O)NCCCCCN1 [Compound 315]
18,< 0.1 µM,O=C1CC2(CCCC2)CC(=O)N[C@H](Cc2ccc(NC(=O)[C@H](Cc3ccccc3Cl)NC(=O)Cc3ccccc3)cc2)C(=O)N[C@@H](Cc2ccccc2)C(=O)NCCCCCN1 [Compound 317]

row,IC50,Structure (SMILES)
1,0.1 to 1 µM,O=C1CC2(CCCC2)CC(=O)N[C@H](Cc2ccc(NC(=O)[C@H](Cc3ccccc3Cl)NC(=O)Cc3ccccc3)cc2)C(=O)NCC(=O)OCCCCCN1 [Compound 318]
2,0.1 to 1 µM,O=C1CC2(CCCC2)CC(=O)N[C@H](Cc2ccc(NC(=O)[C@H](Cc3ccccc3Cl)NC(=O)Cc3ccccc3)cc2)C(=O)N[C@@H](CO)C(=O)NCCCCCN1 [Compound 319]
3,0.1 to 1 µM,CC(C)(C)OC[C@@H]1NC(=O)[C@@H](Cc2ccc(NC(=O)[C@H](Cc3ccccc3Cl)NC(=O)Cc3ccccc3)cc2)NC(=O)CC2(CCCC2)CC(=O)NCCCCCNC1=O [Compound 320]
4,0.1 to 1 µM,C[C@@H](O)[C@@H]1NC(=O)[C@@H](Cc2ccc(NC(=O)[C@H](Cc3ccccc3Cl)NC(=O)Cc3ccccc3)cc2)NC(=O)CC2(CCCC2)CC(=O)NCCCCCNC1=O [Compound 321]
5,0.1 to 1 µM,O=C1CNC(=O)[C@@H](Cc2ccc(NC(=O)[C@H](Cc3ccccc3Cl)NC(=O)Cc3ccccc3)cc2)NC(=O)CC2(CCCC2)CC(=O)NCCCCCOC(=O)CN1 [Compound 322]
6,0.1 to 1 µM,CN1CCNC(=O)CNC(=O)[C@@H](Cc2ccc(NC(=O)[C@H](Cc3ccccc3Cl)NC(=O)Cc3ccccc3)cc2)NC(=O)CC2(CCCC2)CC(=O)NCC1 [Compound 323]
7,0.1 to 1 µM,O=C1CNC(=O)[C@@H](Cc2ccc(NC(=O)[C@H](Cc3ccc(F)cc3Cl)NC(=O)c3ccc(F)cc3)cc2)NC(=O)CC2(CCCC2)CC(=O)NCCOCCN1 [Compound 324]
8,0.1 to 1 µM,O=C1CNC(=O)[C@@H](Cc2ccc(NC(=O)[C@H](Cc3ccccc3Cl)NC(=O)c3cc(F)c(F)c(F)c3)cc2)NC(=O)CC2(CCCC2)CC(=O)NCCCCCN1 [Compound 326]
9,< 0.1 µM,O=C1CNC(=O)[C@@H](Cc2ccc(NC(=O)[C@H](Cc3ccccc3Cl)NC(=O)c3cncnc3)cc2)NC(=O)CC2(CCCC2)CC(=O)NCCCCCN1 [Compound 327]
10,0.1 to 1 µM,O=C1CNC(=O)[C@@H](Cc2ccc(NC(=O)[C@H](Cc3ccccc3Cl)NC(=O)c3ccc(F)c(F)c3F)cc2)NC(=O)CC2(CCCC2)CC(=O)NCCCCCN1 [Compound 328]
11,0.1 to 1 µM,O=C1CNC(=O)[C@@H](Cc2ccc(NC(=O)[C@H](Cc3ccccc3Cl)NC(=O)c3cc(F)c(F)cc3F)cc2)NC(=O)CC2(CCCC2)CC(=O)NCCCCCN1 [Compound 329]
12,0.1 to 1 µM,O=C1CNC(=O)[C@@H](Cc2ccc(NC(=O)[C@H](Cc3ccccc3Cl)NC(=O)c3ccccc3O)cc2)NC(=O)CC2(CCCC2)CC(=O)NCCCCCN1 [Compound 330]
13,0.1 to 1 µM,O=C1CC2(CCCC2)CC(=O)N[C@H](Cc2ccc(NC(=O)[C@@H](NC(=O)Cc3ccccc3)C3CCCCC3)cc2)C(=O)N[C@H](Cc2ccccc2)C(=O)NCCCCCN1 [Compound 331]
14,1 to 10 µM,O=C1CC2(CCCC2)CC(=O)N[C@H](Cc2ccc(NC(=O)[C@@H](NC(=O)Cc3ccccc3)C3CCCCC3)cc2)C(=O)NCCCCCCCCN1 [Compound 334]
15,0.1 to 1 µM,O=C1CC2(CCCC2)CC(=O)N[C@H](Cc2ccc(NC(=O)[C@@H](NC(=O)Cc3ccc(CO)cc3)C3CCCCC3)cc2)C(=O)NCCCCCCCCN1 [Compound 337]
16,0.1 to 1 µM,CN1CCCCCNC(=O)CNC(=O)[C@@H](Cc2ccc(NC(=O)[C@@H](NC(=O)Cc3ccc(CO)cc3)C3CCCCC3)cc2)NC(=O)CC2(CCCC2)CC1=O [Compound 343]
17,0.1 to 1 µM,CN1CCCCCNC(=O)CC2(CCCC2)CC(=O)N[C@H](Cc2ccc(NC(=O)[C@@H](NC(=O)Cc3ccc(CO)cc3)C3CCCCC3)cc2)C(=O)NCC1=O [Compound 351]
